Assay type in all cases: functional
In one assay the test system is Cryptococcus neoformans. Put plainly: Antifungal activity against Cryptococcus neoformans after 72 hrs by micro-broth dilution method.
Another assay has as its system Nannizzia gypsea. Put plainly: Antifungal activity against Microsporum gypseum by micro-broth dilution method. (In general: Dilution methods test growth across graded concentrations, often in twofold steps.)
A further assay concerns Candida parapsilosis. Put plainly: Antifungal activity against Candida parapsilosis by micro-broth dilution method. The following applies: Lodderomyces parapsilosis.
In assay [1] the test system is Candida albicans. Description: Antifungal activity against Candida albicans SC5314 after 24 hrs by micro-broth dilution method. The following applies: SC5314, 24 h.
The subject of another assay is Nakaseomyces glabratus. Put plainly: Antifungal activity against Candida glabrata by micro-broth dilution method.
Assay [2] concerns Candida albicans. Put plainly: Antifungal activity against Candida albicans Y0109 after 24 hrs by micro-broth dilution method. The note with it: Y0109, 24 h.
The next assay relates to Trichophyton rubrum. Put plainly: Antifungal activity against Trichophyton rubrum by micro-broth dilution method.
Another assay concerns Aspergillus fumigatus. Put plainly: Antifungal activity against Aspergillus fumigatus by micro-broth dilution method.

≈ marks a conversion by molar mass, not a printed value.

A word on the MIC80: it is an inhibitory concentration at the 80% level, which refers to growth in some studies and to a panel of isolates in others. On to `CNC(=S)SCC(O)(Cn1cncn1)c1ccc(F)cc1F` (racemic), for which the MIC80 was 64 µg/mL (≈ 186 µM) in the assay with Cryptococcus neoformans; over 64 µg/mL against Nannizzia gypsea; over 64 µg/mL against Candida parapsilosis; 1 µg/mL (≈ 2.9 µM) in the assay with Candida albicans [1]; 2 µg/mL (≈ 5.81 µM) in the assay with Nakaseomyces glabratus; 1 µg/mL (≈ 2.9 µM) with Candida albicans [2]. Also, the MIC80 against Trichophyton rubrum is 4 µg/mL (≈ 11.6 µM); in the assay on Aspergillus fumigatus, over 64 µg/mL.

Consider `CCNC(=S)SCC(O)(Cn1cncn1)c1ccc(F)cc1F` (racemic), for which the MIC80 in the assay on Cryptococcus neoformans is 64 µg/mL (≈ 179 µM); against Nannizzia gypsea, over 64 µg/mL; against Candida parapsilosis it was over 64 µg/mL; with Candida albicans [1], 1 µg/mL (≈ 2.79 µM); in the assay on Nakaseomyces glabratus, 4 µg/mL (≈ 11.2 µM); in the assay on Candida albicans [2], 1 µg/mL (≈ 2.79 µM). The MIC80 in the assay on Trichophyton rubrum was 4 µg/mL (≈ 11.2 µM); against Aspergillus fumigatus, over 64 µg/mL.

In the case of `CCCNC(=S)SCC(O)(Cn1cncn1)c1ccc(F)cc1F` (racemic), the MIC80 in the assay on Cryptococcus neoformans is 64 µg/mL (≈ 172 µM); with Nannizzia gypsea it was over 64 µg/mL; in the assay on Candida parapsilosis, over 64 µg/mL; in the assay on Candida albicans [1], 0.25 µg/mL (≈ 0.671 µM); in the assay on Nakaseomyces glabratus it was 2 µg/mL (≈ 5.37 µM); in the assay on Candida albicans [2], 0.25 µg/mL (≈ 0.671 µM). The MIC80 against Trichophyton rubrum was 32 µg/mL (≈ 85.9 µM); against Aspergillus fumigatus, over 64 µg/mL.

`CC(C)NC(=S)SCC(O)(Cn1cncn1)c1ccc(F)cc1F` (racemic): the MIC80 in the assay on Cryptococcus neoformans was 64 µg/mL (≈ 172 µM); with Nannizzia gypsea, over 64 µg/mL; against Candida parapsilosis, 1 µg/mL (≈ 2.68 µM); with Candida albicans [1], 2 µg/mL (≈ 5.37 µM); in the assay with Nakaseomyces glabratus it was 4 µg/mL (≈ 10.7 µM); in the assay with Candida albicans [2], 1 µg/mL (≈ 2.68 µM). The MIC80 in the assay with Trichophyton rubrum is 64 µg/mL (≈ 172 µM); against Aspergillus fumigatus, over 64 µg/mL.

On to `CCCCNC(=S)SCC(O)(Cn1cncn1)c1ccc(F)cc1F` (racemic), for which the MIC80 was 64 µg/mL (≈ 166 µM) in the assay on Cryptococcus neoformans; over 64 µg/mL in the assay on Nannizzia gypsea; 0.25 µg/mL (≈ 0.647 µM) against Candida parapsilosis; 0.5 µg/mL (≈ 1.29 µM) with Candida albicans [1]; 16 µg/mL (≈ 41.4 µM) against Nakaseomyces glabratus; 0.5 µg/mL (≈ 1.29 µM) against Candida albicans [2]. The MIC80 in the assay with Trichophyton rubrum and with Aspergillus fumigatus was over 64 µg/mL throughout.

Turning to `C=CCNC(=S)SCC(O)(Cn1cncn1)c1ccc(F)cc1F` (racemic), the MIC80 in the assay on Cryptococcus neoformans is 64 µg/mL (≈ 173 µM); in the assay on Nannizzia gypsea, 64 µg/mL (≈ 173 µM); against Candida parapsilosis, 2 µg/mL (≈ 5.4 µM); against Candida albicans [1], 0.5 µg/mL (≈ 1.35 µM); in the assay on Nakaseomyces glabratus, 4 µg/mL (≈ 10.8 µM); against Candida albicans [2] it was 0.5 µg/mL (≈ 1.35 µM). Further, the MIC80 in the assay on Trichophyton rubrum is 64 µg/mL (≈ 173 µM); with Aspergillus fumigatus, over 64 µg/mL.

On to `OC(CSC(=S)NC1CC1)(Cn1cncn1)c1ccc(F)cc1F` (racemic), for which the MIC80 in the assay with Cryptococcus neoformans was 64 µg/mL (≈ 173 µM); against Nannizzia gypsea, over 64 µg/mL; against Candida parapsilosis it was 1 µg/mL (≈ 2.7 µM); with Candida albicans [1], 1 µg/mL (≈ 2.7 µM); with Nakaseomyces glabratus, 8 µg/mL (≈ 21.6 µM); against Candida albicans [2] it was 1 µg/mL (≈ 2.7 µM). The MIC80 with Trichophyton rubrum was 64 µg/mL (≈ 173 µM); against Aspergillus fumigatus, over 64 µg/mL.

For the compound `OC(CSC(=S)NC1CCCCC1)(Cn1cncn1)c1ccc(F)cc1F` (racemic), the MIC80 against Cryptococcus neoformans was 16 µg/mL (≈ 38.8 µM); in the assay on Nannizzia gypsea it was over 64 µg/mL; with Candida parapsilosis it was 64 µg/mL (≈ 155 µM); against Candida albicans [1] it was 0.25 µg/mL (≈ 0.606 µM); against Nakaseomyces glabratus, 4 µg/mL (≈ 9.7 µM); in the assay on Candida albicans [2] it was 0.25 µg/mL (≈ 0.606 µM). Further, the MIC80 was 64 µg/mL (≈ 155 µM) with Trichophyton rubrum and over 64 µg/mL against Aspergillus fumigatus.

On to `OC(Cn1cncn1)(Cn1cncn1)c1ccc(F)cc1F` [FLUCONAZOLE], for which the MIC80 was determined as 1 µg/mL (≈ 3.27 µM) with Cryptococcus neoformans; 32 µg/mL (≈ 104 µM) with Nannizzia gypsea; 2 µg/mL (≈ 6.53 µM) against Candida parapsilosis; 0.25 µg/mL (≈ 0.816 µM) against Candida albicans [1]; 2 µg/mL (≈ 6.53 µM) in the assay with Nakaseomyces glabratus; 0.25 µg/mL (≈ 0.816 µM) against Candida albicans [2]. The MIC80 in the assay on Trichophyton rubrum was 4 µg/mL (≈ 13.1 µM); in the assay with Aspergillus fumigatus, over 64 µg/mL.

With `CCC(C)n1ncn(-c2ccc(N3CCN(c4ccc(OCC5COC(Cn6cncn6)(c6ccc(Cl)cc6Cl)O5)cc4)CC3)cc2)c1=O` (stereo unspecified) [ITRACONAZOLE], the MIC80 against Cryptococcus neoformans came out at 4 µg/mL (≈ 5.67 µM); with Nannizzia gypsea it was 4 µg/mL (≈ 5.67 µM); against Candida parapsilosis, 8 µg/mL (≈ 11.3 µM); with Candida albicans [1], 4 µg/mL (≈ 5.67 µM); against Nakaseomyces glabratus, 1 µg/mL (≈ 1.42 µM); against Candida albicans [2], 8 µg/mL (≈ 11.3 µM). The MIC80 came to 4 µg/mL (≈ 5.67 µM) in the assay with Trichophyton rubrum and 8 µg/mL (≈ 11.3 µM) in the assay with Aspergillus fumigatus.

As for `CC(=O)N1CCN(c2ccc(OCC3COC(Cn4ccnc4)(c4ccc(Cl)cc4Cl)O3)cc2)CC1` (stereo unspecified) [KETOCONAZOLE], the MIC80 is 0.25 µg/mL (≈ 0.47 µM) in the assay with Cryptococcus neoformans; 1 µg/mL (≈ 1.88 µM) against Nannizzia gypsea; 0.5 µg/mL (≈ 0.941 µM) in the assay with Candida parapsilosis; at most 0.125 µg/mL against Candida albicans [1]; 0.5 µg/mL (≈ 0.941 µM) in the assay with Nakaseomyces glabratus; 0.25 µg/mL (≈ 0.47 µM) in the assay on Candida albicans [2]. Further, the MIC80 against Trichophyton rubrum worked out at 0.125 µg/mL (≈ 0.235 µM); in the assay on Aspergillus fumigatus it was 4 µg/mL (≈ 7.53 µM).

On to `CN(C/C=C/C#CC(C)(C)C)Cc1cccc2ccccc12` [TERBINAFINE], for which the MIC80 is 0.25 µg/mL (≈ 0.858 µM) with Cryptococcus neoformans; 0.0625 µg/mL (≈ 0.214 µM) with Nannizzia gypsea; 1 µg/mL (≈ 3.43 µM) with Candida parapsilosis; 4 µg/mL (≈ 13.7 µM) in the assay with Candida albicans [1]; 2 µg/mL (≈ 6.86 µM) in the assay on Nakaseomyces glabratus; 16 µg/mL (≈ 54.9 µM) in the assay with Candida albicans [2]. Further, the MIC80 worked out at 0.0625 µg/mL (≈ 0.214 µM) against Trichophyton rubrum and 0.25 µg/mL (≈ 0.858 µM) in the assay on Aspergillus fumigatus.

These data come from ChEMBL document CHEMBL3112568, “Synthesis, antifungal activities and molecular docking studies of novel 2-(2,4-difluorophenyl)-2-hydroxy-3-(1H-1,2,4-triazol-1-yl)propyl dithiocarbamates” (2014).
